Laboratory results as given in patent US20160122820A1, “Screening Method for Identifying Active Agents” (Avon Products, Inc., priority 2014, published 2016).
One block for each compound: values may come before it.

Test system: human skin
Details: for CYP7B1 gene expression (fold change): in vivo; for BIRC3 gene expression (fold change) / C1orf162 gene expression (fold change) / CCR2 gene expression (fold change) / CD1B gene expression (fold change) / CD2 gene expression (fold change) / CD53 gene expression (fold change) / CD86 gene expression (fold change) / CD226 gene expression (fold change) / CHRM4 gene expression (fold change) / CLEC7A gene expression (fold change) / COL3A1 gene expression (fold change) / COL5A2 gene expression (fold change) / COL6A6 gene expression (fold change) / COL14A1 gene expression (fold change) / CTSS gene expression (fold change) / CYBB gene expression (fold change) / CYTIP gene expression (fold change) / DIO2 gene expression (fold change) / EVI2B gene expression (fold change) / FAP gene expression (fold change) / FCGR2A gene expression (fold change) / FPR3 gene expression (fold change) / FYB gene expression (fold change) / GDPD2 gene expression (fold change) / GLIPR1 gene expression (fold change) / GMFG gene expression (fold change) / GPR174 gene expression (fold change) / GZMK gene expression (fold change) / HIST1H3A gene expression (fold change) / HLA-DPA1 gene expression (fold change) / HLA-DQA1 gene expression (fold change) / HLA-DRA gene expression (fold change) / IFI44L gene expression (fold change) / IFI44 gene expression (fold change) / IL33 gene expression (fold change) / IRF8 gene expression (fold change) / KIAA0226L gene expression (fold change) / KLRB1 gene expression (fold change) / LYZ gene expression (fold change) / MIRLET7C gene expression (fold change) / MNDA gene expression (fold change) / OCA2 gene expression (fold change) / PARP14 gene expression (fold change) / PCSK2 gene expression (fold change) / PLAC8 gene expression (fold change) / PLEK gene expression (fold change) / PTPRC gene expression (fold change) / RGS1 gene expression (fold change) / RNASE6 gene expression (fold change) / SAMD9 gene expression (fold change) / SELL gene expression (fold change) / SPP1 gene expression (fold change) / SRGN gene expression (fold change) / ST8SIA4 gene expression (fold change) / TPPP gene expression (fold change) / TRPM1 gene expression (fold change) / UGT2A1 gene expression (fold change) / VCAM1 gene expression (fold change): photodamaged forearm skin, 0.02% partially occlusive patch 30 days, 30-day biopsy relative to baseline, negative = downregulated

CYP7B1 gene expression (fold change): 1.320 fold change
SMILES: CC1=C(/C=C/C(C)=C/C=C/C(C)=C/C(=O)O)C(C)(C)CCC1 [RA, retinoic acid]
BIRC3 gene expression (fold change): 1.555 fold change
C1orf162 gene expression (fold change): 1.356 fold change
CCR2 gene expression (fold change): 1.658 fold change
CD1B gene expression (fold change): 1.510 fold change
CD2 gene expression (fold change): 1.339 fold change
CD53 gene expression (fold change): 1.586 fold change
CD86 gene expression (fold change): 1.468 fold change
CD226 gene expression (fold change): 1.423 fold change
CHRM4 gene expression (fold change): −1.326 fold change
CLEC7A gene expression (fold change): 1.964 fold change
COL3A1 gene expression (fold change): 1.443 fold change
COL5A2 gene expression (fold change): 1.369 fold change
COL6A6 gene expression (fold change): 2.091 fold change
COL14A1 gene expression (fold change): 1.311 fold change
CTSS gene expression (fold change): 1.302 fold change
CYBB gene expression (fold change): 1.637 fold change
CYTIP gene expression (fold change): 1.336 fold change
DIO2 gene expression (fold change): −1.548 fold change
EVI2B gene expression (fold change): 1.405 fold change
FAP gene expression (fold change): 1.370 fold change
FCGR2A gene expression (fold change): 1.366 fold change
FPR3 gene expression (fold change): 1.439 fold change
FYB gene expression (fold change): 1.483 fold change
GDPD2 gene expression (fold change): −2.585 fold change
GLIPR1 gene expression (fold change): 1.422 fold change
GMFG gene expression (fold change): 1.358 fold change
GPR174 gene expression (fold change): 1.411 fold change
GZMK gene expression (fold change): 1.571 fold change
HIST1H3A gene expression (fold change): 1.375 fold change
HLA-DPA1 gene expression (fold change): 1.466 fold change
HLA-DQA1 gene expression (fold change): 1.594 fold change
HLA-DRA gene expression (fold change): 1.403 fold change
IFI44L gene expression (fold change): 1.472 fold change
IFI44 gene expression (fold change): 1.337 fold change
IL33 gene expression (fold change): 1.587 fold change
IRF8 gene expression (fold change): 1.725 fold change
KIAA0226L gene expression (fold change): 1.307 fold change
KLRB1 gene expression (fold change): 1.363 fold change
LYZ gene expression (fold change): 2.271 fold change
MIRLET7C gene expression (fold change): −1.319 fold change
MNDA gene expression (fold change): 1.406 fold change
OCA2 gene expression (fold change): −1.432 fold change
PARP14 gene expression (fold change): 1.364 fold change
PCSK2 gene expression (fold change): −1.825 fold change
PLAC8 gene expression (fold change): 1.844 fold change
PLEK gene expression (fold change): 1.667 fold change
PTPRC gene expression (fold change): 1.606 fold change
RGS1 gene expression (fold change): 1.503 fold change
RNASE6 gene expression (fold change): 1.540 fold change
SAMD9 gene expression (fold change): 5.339 fold change
SELL gene expression (fold change): 1.691 fold change
SPP1 gene expression (fold change): 1.416 fold change
SRGN gene expression (fold change): 1.569 fold change
ST8SIA4 gene expression (fold change): 1.389 fold change
TPPP gene expression (fold change): −1.402 fold change
TRPM1 gene expression (fold change): −1.306 fold change
UGT2A1 gene expression (fold change): −1.369 fold change
VCAM1 gene expression (fold change): 1.730 fold change

CYP7B1 gene expression (fold change): 1.309 fold change
SMILES: CC1=C(/C=C/C(C)=C/C=C/C(C)=C/CO)C(C)(C)CCC1 [Retinol, retinol]
BIRC3 gene expression (fold change): 1.815 fold change
C1orf162 gene expression (fold change): 1.301 fold change
CCR2 gene expression (fold change): 1.416 fold change
CD1B gene expression (fold change): 1.844 fold change
CD2 gene expression (fold change): 1.311 fold change
CD53 gene expression (fold change): 1.483 fold change
CD86 gene expression (fold change): 1.348 fold change
CD226 gene expression (fold change): 1.396 fold change
CHRM4 gene expression (fold change): −1.401 fold change
CLEC7A gene expression (fold change): 1.502 fold change
COL3A1 gene expression (fold change): 1.455 fold change
COL5A2 gene expression (fold change): 1.380 fold change
COL6A6 gene expression (fold change): 2.245 fold change
COL14A1 gene expression (fold change): 1.408 fold change
CTSS gene expression (fold change): 1.514 fold change
CYBB gene expression (fold change): 1.413 fold change
CYTIP gene expression (fold change): 1.481 fold change
DIO2 gene expression (fold change): −1.384 fold change
EVI2B gene expression (fold change): 1.323 fold change
FAP gene expression (fold change): 1.518 fold change
FCGR2A gene expression (fold change): 1.346 fold change
FPR3 gene expression (fold change): 1.321 fold change
FYB gene expression (fold change): 1.404 fold change
GDPD2 gene expression (fold change): −1.363 fold change
GLIPR1 gene expression (fold change): 1.450 fold change
GMFG gene expression (fold change): 1.300 fold change
GPR174 gene expression (fold change): 1.339 fold change
GZMK gene expression (fold change): 1.402 fold change
HIST1H3A gene expression (fold change): −1.363 fold change
HLA-DPA1 gene expression (fold change): 1.364 fold change
HLA-DQA1 gene expression (fold change): 1.378 fold change
HLA-DRA gene expression (fold change): 1.439 fold change
IFI44L gene expression (fold change): 1.320 fold change
IFI44 gene expression (fold change): 1.429 fold change
IL33 gene expression (fold change): 1.360 fold change
IRF8 gene expression (fold change): 1.392 fold change
KIAA0226L gene expression (fold change): 1.371 fold change
KLRB1 gene expression (fold change): 1.377 fold change
LYZ gene expression (fold change): 1.603 fold change
MIRLET7C gene expression (fold change): 1.366 fold change
MNDA gene expression (fold change): 1.805 fold change
OCA2 gene expression (fold change): −1.334 fold change
PARP14 gene expression (fold change): 1.356 fold change
PCSK2 gene expression (fold change): −1.566 fold change
PLAC8 gene expression (fold change): 1.434 fold change
PLEK gene expression (fold change): 1.449 fold change
PTPRC gene expression (fold change): 1.446 fold change
RGS1 gene expression (fold change): 1.379 fold change
RNASE6 gene expression (fold change): 1.452 fold change
SAMD9 gene expression (fold change): 1.382 fold change
SELL gene expression (fold change): 1.304 fold change
SPP1 gene expression (fold change): 1.604 fold change
SRGN gene expression (fold change): 1.353 fold change
ST8SIA4 gene expression (fold change): 1.366 fold change
TPPP gene expression (fold change): −1.328 fold change
TRPM1 gene expression (fold change): −1.431 fold change
UGT2A1 gene expression (fold change): −1.696 fold change
VCAM1 gene expression (fold change): 1.357 fold change
